Measured values taken from patent publication US20230096137A1, “COMPOSITION FOR LITHOGRAPHY AND PATTERN FORMATION METHOD” (Mitsubishi Gas Chemical Company, Inc., priority 2020, published 2023).

Assay: Safe solvent solubility test of compound (PGMEA)
Type: physicochemical
Settings: 23° C., ultrasonic 30 minutes, visual
Method: (1) Safe Solvent Solubility Test of Compound
The solubility of the compound in PGMEA was evaluated according to the following criteria using the amount dissolved in each solvent. The amount of dissolution was measured at 23° C. by precisely weighing the compound into a test tube, adding a target solvent so as to attain a predetermined concentration, applying ultrasonic waves for 30 minutes in an ultrasonic cleaner, and then visually observing the subsequent state of the fluid.
A: 5.0% by mass≤Amount of dissolution
B: 2.0% by mass≤Amount of dissolution<5.0% by mass
C: Amount of dissolution<2.0% by mass

Structure (SMILES) | Safety solvent solubility PGMEA
CC(C)(COc1c(I)cc(N2CC=CC2)cc1I)COc1c(I)cc(N2CC=CC2)cc1I [BMI-1] | A (5.0% by mass≤Amount of dissolution)
Cc1cc(C(c2ccc(I)cc2)c2cc(C)c(O)c(C)c2)cc(C)c1O [BisB-1] | A (5.0% by mass≤Amount of dissolution)
Oc1ccc(-c2ccc(O)c(C(c3cc(-c4ccc(O)cc4)ccc3O)c3cc(I)cc(I)c3O)c2)cc1 [BisB-2] | A (5.0% by mass≤Amount of dissolution)
Oc1ccc2c3c(ccc2c1I)Oc1ccc2c(I)c(O)ccc2c1C3c1ccc(-c2ccccc2)cc1 [XBisN-3] | A (5.0% by mass≤Amount of dissolution)
Oc1ccc2c3c(ccc2c1)Oc1ccc2cc(O)ccc2c1C3c1ccc(-c2ccccc2)cc1 [XBisN-C1, reference compound] | B (2.0% by mass≤Amount of dissolution<5.0% by mass)
Oc1ccc2c3c(ccc2c1)Oc1ccc2cc(O)ccc2c1C3c1cccc(I)c1 [XbisN-1] | B (2.0% by mass≤Amount of dissolution<5.0% by mass)
